In patent US6911474B2, “Methods, compounds, and compositions for reducing body fat and modulating fatty acid metabolism” (The Regents of the University of California, priority 2001, dated 2005):
Several values for one entry are separate records, joined by “and”; a condition that tells them apart may be missing. Identical values can stand only once.

Assays:
[1] = system: Hepatocyte; test: [14C]oleate oxidation to ketone bodies in hepatocytes; format: cell-based, rat
Procedure: Compounds can also be assayed for their effect on fatty acid metabolism. The effect of the candidate compound on fatty acid metabolism can be measured by measurements of fatty acid oxidation in primary cultures of liver cells. Hepatocytes may be used to determine the rate of oleate oxidation to ketone bodies and carbon dioxide. Such cells can be isolated from adult rat liver by enzymatic digestion as described by Beynen et al. in Diabetes 28:828 (1979). Cells typically are cultured in suspension and incubated in Krebs-Henseleit's bicarbonate medium supplemented with bovine serum albumin and glucose as described by Guzmán & Geelen, Biochem. J. 287:487(1992). The protein concentration of the cultured cells can be determined and cells seeded in 2 ml media so that 4-6 mg protein per ml is present in the reaction mixture. Cells can be incubated for 10 minutes at 37° C. with [^14C]-oleic acid (Arnersham), in the presence or absence of 10 μM OEA, reactions may be stopped with 200 μl 2M perchloric acid and acid-soluble products extracted with chloroform/methanol/water (5:1:1, vol:vol:vol). The aqueous phase can be removed and washed twice more. Protein concentration can be determined using a Lowry assay. The rate of oleate conversion into ketone bodies may be expressed as rnmol of oleate oxidized per hour per mg protein and may be determined using liquid scintillation counting. […]

[2] = Hot plate test, pain threshold; format: in vivo, rat; details: FIG. 4f
Procedure: Other behavioral assays. The elevated plus maze test was conducted as described (Navarro et al., Neuroreport, 8:491-496 (1997)) after the administration of vehicle or OEA (20 mg per kg, i.p.). Horizontal activity in an open field (Beltramo et al., J. Neurosci., 20:3401-3407 (2000)) and pain threshold in the hot plate test (55° C.) (Beltramo et al., Science, 277:1094-1097 (1997)) were measured 15 min after injection of vehicle or OEA (20 mg per kg). Rectal temperature was measured using a digital thermometer (Martin-Calderón et al., Eur. J. Pharmacol., 344:77-86. (1998)).

[3] = Food intake in capsaicin-treated rats (sensory fibers destroyed); format: in vivo, rat; details: OEA 10 mg per kg, i.p., FIG. 6a,c
Description: Chemicals. FAEs and [^2H4] FAEs were synthesized in the laboratory (Giuffrida et al., “Lipid Second Messengers” (ed. Laychock, S. G. & Rubin, R. P.) 113-133 (CRC Press LLC, Boca Raton, Fla., 1998)); 1,2-dioleyl-sn-glycero-phosphoethanolamine-N-oleyl was purchased from Avanti Polar Lipids (Alabaster, Ala.); SR141716A was provided by RBI (Natick, Mass.) as part of the Chemical Synthesis Program of the NIMH (N01MH30003); SR144528 was a generous gift of Sanofi Recherche; all other drugs were from Tocris (Ballwin, Mo.) or Sigma (Saint Louis, Mo.). FAE were dissolved in dimethylsulphoxide (DMSO) and administered in 70% DMSO in sterile saline (acute treatments) or 5% Tween 80/5% propylenglycol in sterile saline (subchronic treatments) (1 ml per kg, i.p.). Capsaicin was administered in 10% Tween 80/10% ethanol/80% saline; SR141716A, SR144528, CCK-8 and CP-93129 in 5% Tween 80/5% propylenglycol/90% saline (1 ml per kg, i.p.).
These findings support the hypothesis that OEA causes hypophagia by acting at a peripheral site, and that sensory fibers are required for this effect.

[4] = Acute water intake; format: in vivo, rat; details: 5 or 20 mg per kg; FIG. 4d
Procedure: FIG. 4. Oleoylethanolamide/[…] selectively suppresses food intake: […] Vehicle alone (70% DMSO in saline, 1 ml per kg, i.p.) had no significant effect on acute food intake; (b) time course of the hypophagic effects of oleoylethanolamide (20 mg per kg, i.p.) (squares) or vehicle (lozenges) on food intake. […] Empty bars, water intake; filled bars, saccharin intake. Effects of vehicle (V) or oleoylethanolamide (5 or 20 mg per kg) on: (d) water intake (expressed in ml per 4 h); (e) body temperature; (f) latency to jump in the hot plate analgesia test; (g) percent time spent in open arms in the elevated plus maze anxiety test; (h) number of crossings in the open field activity test; (i) number of operant responses for food. Asterisk, P<0.05, n=8-12 per group.

pain threshold [2]: did not alter
water intake [4]: did not alter
SMILES: CCCCCCCC/C=C\CCCCCCCC(=O)NCCO [OEA, Oleoylethanolamide]
Stimulatory effect of 10 μM OEA (%) on [14C]oleate oxidation to ketone bodies ([1]; Hepatocyte, 10 μM, 10 min incubation): 21+−6% and 21 ± 6%
fatty acid oxidation in words ([1]; primary cultures of liver cells): significantly stimulates
food intake response of capsaicin-treated rats [3]: failed to respond
